Test results taken from the NIST ThermoML archive (doi:10.1016/j.jct.2016.03.026).

Assay: xn = mol fraction of the nth substance listed
Details: 273.15 K, Fluid (supercritical or subcritical phases), x1 = 0.97; for mass density: Vibrating tube method

O=C=O [carbon dioxide] + CO
Details	mass density [kg/m3]
8000 kPa	962.72
8025 kPa	962.8
8050 kPa	962.97
8075 kPa	963.13
8100 kPa	963.21
8125 kPa	963.38
8150 kPa	963.54
8175 kPa	963.7
8200 kPa	963.78
8225 kPa	963.95
8250 kPa	964.11
8275 kPa	964.23
8300 kPa	964.35
8325 kPa	964.52
8350 kPa	964.68
8375 kPa	964.76
8400 kPa	964.93
8425 kPa	965.04
8450 kPa	965.19
8475 kPa	965.34
8500 kPa	965.5
8525 kPa	965.6
8550 kPa	965.74
8575 kPa	965.91
8600 kPa	966
8625 kPa	966.15
8650 kPa	966.32
8675 kPa	966.46
8700 kPa	966.56
8725 kPa	966.72
8750 kPa	966.89
8775 kPa	966.97
8800 kPa	967.13
8825 kPa	967.3
8850 kPa	967.38
8875 kPa	967.54
8900 kPa	967.71
8925 kPa	967.86
8950 kPa	967.95
8975 kPa	968.12
9000 kPa	968.28
9025 kPa	968.36
9050 kPa	968.52
9075 kPa	968.69
9100 kPa	968.77
9125 kPa	968.93
9150 kPa	969.1
9175 kPa	969.18
9200 kPa	969.34
9225 kPa	969.51
9250 kPa	969.64
9275 kPa	969.75
9300 kPa	969.92
9325 kPa	970
9350 kPa	970.16
9375 kPa	970.32
9400 kPa	970.45
9425 kPa	970.57
9450 kPa	970.67
9475 kPa	970.81
9500 kPa	970.97
9525 kPa	971.14
9550 kPa	971.22
9575 kPa	971.39
9600 kPa	971.55
9625 kPa	971.63
9650 kPa	971.74
9675 kPa	971.88
9700 kPa	972.04
9725 kPa	972.2
9750 kPa	972.29
9775 kPa	972.43
9800 kPa	972.53
9825 kPa	972.69
9850 kPa	972.82
9875 kPa	972.94
9900 kPa	973.1
9925 kPa	973.18
9950 kPa	973.35
9975 kPa	973.43
10000 kPa	973.59
10025 kPa	973.69
10050 kPa	973.84
10075 kPa	973.99
10100 kPa	974.08
10125 kPa	974.24
10150 kPa	974.34
10175 kPa	974.49
10200 kPa	974.57
10225 kPa	974.73
10250 kPa	974.82
10275 kPa	974.98
10300 kPa	975.11
10325 kPa	975.22
10350 kPa	975.36
10375 kPa	975.47
10400 kPa	975.63
10425 kPa	975.71
10450 kPa	975.88
10475 kPa	975.96
10500 kPa	976.12
10525 kPa	976.2
10550 kPa	976.37
10575 kPa	976.45
10600 kPa	976.61
10625 kPa	976.69
10650 kPa	976.86
10675 kPa	976.94
10700 kPa	977.1
10725 kPa	977.18
10750 kPa	977.35
10775 kPa	977.48
10800 kPa	977.59
10825 kPa	977.76
10850 kPa	977.84
10875 kPa	978
10900 kPa	978.08
10925 kPa	978.2
10950 kPa	978.33
10975 kPa	978.49

Details	speed of sound [m/s]
10000 kPa, Frequency=5 MHz, Pulse-echo method	634.7
